# Data from the NIST ThermoML archive (doi:10.1016/j.jct.2009.05.004).
# Numbers after ± are expanded uncertainties.
# Assay: mn = molality of the nth substance listed, in mol/kg
# Conditions: Liquid, Vibrating tube method
structure (smiles),measurement,setting,value
[Br-].[Br-].[Zn+2] [zinc bromide] + CCO,mass density,"333.15 K, 25621 kPa, m1 = 0.3043",825.37 ± 0.67 kg/m3
same,mass density,"333.15 K, 29810 kPa, m1 = 0.4384",848.46 ± 0.66 kg/m3
same,mass density,"333.15 K, 29875 kPa, m1 = 1.49",995.4 ± 0.62 kg/m3
same,mass density,"333.15 K, 29941 kPa, m1 = 0.05681",791.79 ± 0.7 kg/m3
same,mass density,"333.15 K, 34256 kPa, m1 = 0.3043",832.31 ± 0.68 kg/m3
same,mass density,"333.15 K, 34920 kPa, m1 = 0.4384",852.42 ± 0.67 kg/m3
same,mass density,"333.15 K, 34965 kPa, m1 = 1.49",999.47 ± 0.62 kg/m3
same,mass density,"333.15 K, 39957 kPa, m1 = 1.49",1003.26 ± 0.62 kg/m3
same,mass density,"333.16 K, 1604 kPa, m1 = 1.887",1020.71 ± 0.62 kg/m3
same,mass density,"333.16 K, 5024 kPa, m1 = 0.3043",806.15 ± 0.63 kg/m3
same,mass density,"333.16 K, 10325 kPa, m1 = 0.3043",811.46 ± 0.64 kg/m3
same,mass density,"333.16 K, 14730 kPa, m1 = 0.4384",835.35 ± 0.64 kg/m3
same,mass density,"333.16 K, 14913 kPa, m1 = 0.9305",905.9 ± 0.63 kg/m3
same,mass density,"333.16 K, 15014 kPa, m1 = 0.05681",778.76 ± 0.66 kg/m3
same,mass density,"333.16 K, 29941 kPa, m1 = 0.3043",828.93 ± 0.67 kg/m3
same,mass density,"333.16 K, 30014 kPa, m1 = 1.887",1047.6 ± 0.62 kg/m3
same,mass density,"333.16 K, 35068 kPa, m1 = 0.05681",795.79 ± 0.71 kg/m3
same,mass density,"333.16 K, 39745 kPa, m1 = 0.3043",836.38 ± 0.69 kg/m3
same,mass density,"333.16 K, 39787 kPa, m1 = 0.1696",816.47 ± 0.71 kg/m3
same,mass density,"333.16 K, 39824 kPa, m1 = 0.4384",855.99 ± 0.68 kg/m3
same,mass density,"333.17 K, 1074 kPa, m1 = 0.4384",821.64 ± 0.63 kg/m3
same,mass density,"333.17 K, 25080 kPa, m1 = 0.9305",915 ± 0.63 kg/m3
same,mass density,"333.17 K, 39803 kPa, m1 = 0.9305",926.52 ± 0.64 kg/m3
same,mass density,"333.17 K, 39921 kPa, m1 = 0.05681",799.36 ± 0.73 kg/m3
same,mass density,"333.18 K, 9721 kPa, m1 = 0.1696",791.08 ± 0.64 kg/m3
same,mass density,"333.18 K, 14944 kPa, m1 = 0.1696",796.06 ± 0.65 kg/m3
same,mass density,"333.18 K, 19908 kPa, m1 = 0.1696",800.57 ± 0.66 kg/m3
same,mass density,"333.18 K, 19971 kPa, m1 = 1.887",1038.86 ± 0.62 kg/m3
same,mass density,"333.18 K, 25143 kPa, m1 = 1.887",1043.47 ± 0.62 kg/m3
same,mass density,"333.18 K, 29806 kPa, m1 = 0.1696",808.92 ± 0.69 kg/m3
same,mass density,"333.18 K, 34946 kPa, m1 = 0.1696",812.92 ± 0.7 kg/m3
same,mass density,"333.2 K, 24905 kPa, m1 = 0.1696",804.89 ± 0.67 kg/m3
same,mass density,"353.12 K, 1215 kPa, m1 = 0.1696",762.79 ± 0.63 kg/m3
same,mass density,"353.12 K, 4885 kPa, m1 = 0.9305",876.1 ± 0.62 kg/m3
same,mass density,"353.12 K, 24736 kPa, m1 = 0.4384",827.02 ± 0.66 kg/m3
same,mass density,"353.12 K, 29724 kPa, m1 = 0.4384",831.58 ± 0.67 kg/m3
same,mass density,"353.12 K, 34818 kPa, m1 = 0.1696",796.87 ± 0.71 kg/m3
same,mass density,"353.12 K, 40086 kPa, m1 = 0.9305",910.04 ± 0.64 kg/m3
same,mass density,"353.13 K, 19976 kPa, m1 = 0.4384",822.41 ± 0.65 kg/m3
same,mass density,"353.13 K, 29922 kPa, m1 = 1.887",1029.35 ± 0.62 kg/m3
same,mass density,"353.13 K, 34919 kPa, m1 = 0.9305",905.88 ± 0.64 kg/m3
same,mass density,"353.13 K, 35245 kPa, m1 = 0.05681",780.23 ± 0.73 kg/m3
same,mass density,"353.14 K, 5032 kPa, m1 = 0.3043",786.89 ± 0.63 kg/m3
same,mass density,"353.14 K, 5065 kPa, m1 = 0.05681",750.01 ± 0.64 kg/m3
same,mass density,"353.14 K, 9866 kPa, m1 = 0.1696",772.71 ± 0.65 kg/m3
same,mass density,"353.14 K, 9945 kPa, m1 = 1.887",1009.26 ± 0.62 kg/m3
same,mass density,"353.14 K, 19983 kPa, m1 = 0.1696",783.31 ± 0.67 kg/m3
same,mass density,"353.14 K, 25841 kPa, m1 = 0.3043",808.62 ± 0.67 kg/m3
same,mass density,"353.14 K, 34738 kPa, m1 = 1.887",1033.52 ± 0.62 kg/m3
same,mass density,"353.14 K, 39852 kPa, m1 = 0.3043",820.61 ± 0.71 kg/m3
same,mass density,"353.15 K, 1306 kPa, m1 = 0.9305",871.91 ± 0.62 kg/m3
same,mass density,"353.15 K, 1451 kPa, m1 = 0.05681",745.7 ± 0.64 kg/m3
same,mass density,"353.15 K, 1574 kPa, m1 = 0.3043",782.83 ± 0.63 kg/m3
same,mass density,"353.15 K, 1687 kPa, m1 = 1.49",948.01 ± 0.62 kg/m3
same,mass density,"353.15 K, 5032 kPa, m1 = 1.49",951.99 ± 0.62 kg/m3
same,mass density,"353.15 K, 10024 kPa, m1 = 0.05681",755.67 ± 0.65 kg/m3
same,mass density,"353.15 K, 10024 kPa, m1 = 1.49",957.68 ± 0.62 kg/m3
same,mass density,"353.15 K, 10145 kPa, m1 = 0.3043",792.67 ± 0.64 kg/m3
same,mass density,"353.15 K, 15624 kPa, m1 = 1.49",963.72 ± 0.62 kg/m3
same,mass density,"353.15 K, 19924 kPa, m1 = 0.05681",766.16 ± 0.68 kg/m3
same,mass density,"353.15 K, 19957 kPa, m1 = 1.49",968.14 ± 0.62 kg/m3
same,mass density,"353.15 K, 20412 kPa, m1 = 0.3043",803.4 ± 0.66 kg/m3
same,mass density,"353.15 K, 25214 kPa, m1 = 1.49",973.21 ± 0.62 kg/m3
same,mass density,"353.15 K, 29658 kPa, m1 = 1.49",977.25 ± 0.62 kg/m3
same,mass density,"353.15 K, 29952 kPa, m1 = 0.3043",812.36 ± 0.68 kg/m3
same,mass density,"353.15 K, 30014 kPa, m1 = 0.05681",775.72 ± 0.71 kg/m3
same,mass density,"353.15 K, 34984 kPa, m1 = 1.49",981.78 ± 0.62 kg/m3
same,mass density,"353.15 K, 39958 kPa, m1 = 1.49",985.72 ± 0.62 kg/m3
same,mass density,"353.15 K, 39984 kPa, m1 = 0.05681",784.05 ± 0.74 kg/m3
same,mass density,"353.16 K, 4839 kPa, m1 = 0.1696",767.04 ± 0.64 kg/m3
same,mass density,"353.16 K, 9987 kPa, m1 = 0.9305",881.84 ± 0.63 kg/m3
same,mass density,"353.16 K, 15412 kPa, m1 = 0.05681",761.52 ± 0.67 kg/m3
same,mass density,"353.16 K, 15624 kPa, m1 = 0.3043",798.54 ± 0.65 kg/m3
same,mass density,"353.16 K, 24888 kPa, m1 = 0.1696",788.05 ± 0.68 kg/m3
same,mass density,"353.16 K, 34658 kPa, m1 = 0.3043",816.41 ± 0.7 kg/m3
same,mass density,"353.16 K, 34826 kPa, m1 = 0.4384",835.96 ± 0.68 kg/m3
same,mass density,"353.16 K, 39714 kPa, m1 = 1.887",1037.55 ± 0.62 kg/m3
same,mass density,"353.17 K, 4861 kPa, m1 = 0.4384",806.08 ± 0.63 kg/m3
same,mass density,"353.17 K, 14799 kPa, m1 = 0.1696",778.02 ± 0.66 kg/m3
same,mass density,"353.17 K, 14872 kPa, m1 = 1.887",1014.63 ± 0.62 kg/m3
same,mass density,"353.17 K, 19935 kPa, m1 = 0.9305",892.23 ± 0.63 kg/m3
same,mass density,"353.17 K, 24932 kPa, m1 = 0.05681",771.05 ± 0.69 kg/m3
same,mass density,"353.17 K, 29746 kPa, m1 = 0.1696",792.5 ± 0.7 kg/m3
same,mass density,"353.17 K, 39702 kPa, m1 = 0.1696",800.82 ± 0.73 kg/m3
same,mass density,"353.18 K, 9743 kPa, m1 = 0.4384",811.63 ± 0.64 kg/m3
same,mass density,"353.18 K, 14964 kPa, m1 = 0.9305",887.17 ± 0.63 kg/m3
same,mass density,"353.18 K, 29738 kPa, m1 = 0.9305",901.43 ± 0.64 kg/m3
same,mass density,"353.19 K, 1518 kPa, m1 = 0.4384",802.12 ± 0.63 kg/m3
same,mass density,"353.19 K, 19828 kPa, m1 = 1.887",1019.76 ± 0.62 kg/m3
same,mass density,"353.19 K, 24834 kPa, m1 = 0.9305",896.96 ± 0.64 kg/m3
same,mass density,"353.19 K, 39796 kPa, m1 = 0.4384",839.94 ± 0.69 kg/m3
same,mass density,"353.2 K, 1878 kPa, m1 = 1.887",999.87 ± 0.61 kg/m3
same,mass density,"353.2 K, 4878 kPa, m1 = 1.887",1003.45 ± 0.62 kg/m3
same,mass density,"353.2 K, 24815 kPa, m1 = 1.887",1024.64 ± 0.62 kg/m3
same,mass density,"353.21 K, 14513 kPa, m1 = 0.4384",816.8 ± 0.65 kg/m3
same,mass density,"373.12 K, 1190 kPa, m1 = 0.4384",780.46 ± 0.63 kg/m3
same,mass density,"373.12 K, 1697 kPa, m1 = 1.887",977.46 ± 0.62 kg/m3
same,mass density,"373.12 K, 5014 kPa, m1 = 1.887",981.85 ± 0.62 kg/m3
same,mass density,"373.12 K, 9878 kPa, m1 = 0.4384",791.75 ± 0.64 kg/m3
same,mass density,"373.12 K, 29863 kPa, m1 = 0.1696",775.41 ± 0.71 kg/m3
same,mass density,"373.12 K, 29926 kPa, m1 = 1.887",1010.28 ± 0.62 kg/m3
same,mass density,"373.12 K, 29956 kPa, m1 = 0.4384",814.15 ± 0.68 kg/m3
same,mass density,"373.13 K, 4952 kPa, m1 = 0.05681",729.35 ± 0.64 kg/m3
same,mass density,"373.13 K, 4965 kPa, m1 = 0.1696",746.64 ± 0.64 kg/m3
same,mass density,"373.13 K, 9897 kPa, m1 = 1.887",988.07 ± 0.62 kg/m3
same,mass density,"373.13 K, 14946 kPa, m1 = 1.887",994.16 ± 0.62 kg/m3
same,mass density,"373.13 K, 20065 kPa, m1 = 1.887",1000 ± 0.61 kg/m3
same,mass density,"373.13 K, 24795 kPa, m1 = 0.4384",808.88 ± 0.67 kg/m3
same,mass density,"373.13 K, 24847 kPa, m1 = 0.1696",770.29 ± 0.69 kg/m3
same,mass density,"373.14 K, 1612 kPa, m1 = 0.1696",742.13 ± 0.63 kg/m3
